Results published in patent publication US10131744B2, “Antimicrobial polyamide compositions and mastitis treatment” (priority 2013, dated 2018).
Values after ≈ are worked out from the molar mass of the structure shown. Where two headings read alike, the source gives them in different places.

What was measured:
[1] = tested on: S. pneumoniae (Str-53) ATCC 49619; test: MIC in broth against S. pneumoniae; assay type: cell-based; conditions: Streptococcus pneumoniae, ATCC49619
Description: The antimicrobial efficacy of twenty-five antimicrobial polymers (and Erythromycin) was evaluated using an MIC assay. […] Overall, the antimicrobial polymer-containing compositions performed comparably well, or better, against the pathogens, as compared to Erythromycin (ERY).

[2] = tested on: Mycoplasma bovis; test: organism not typed; assay type: cell-based
[3] = tested on: Actinobacillus pleuropneumoniae; test: MIC in broth against Actinobacillus pleuropneumoniae; assay type: cell-based
Description: (§1) The antimicrobial efficacy of twenty-five antimicrobial polymers (and Erythromycin) was evaluated using an MIC assay. For each study, a doubling dilution concentration of each antimicrobial polymer was prepared at 2× the final concentration range (0.12 to 16 μg/mL), and 100 μL of the API-null formulation was dispensed into the negative control wells. Overall, the antimicrobial polymer-containing compositions performed comparably well, or better, against the pathogens, as compared to Erythromycin (ERY).

[4] = tested on: Histophilus somni; test: MIC in broth against Histophilus somni; assay type: cell-based
Description: as §1

[5] = tested on: Enterobacter species; test: MIC in broth against Enterobacter species; assay type: cell-based
Description: as §1

[6] = tested on: Proteus mirabilis; test: MIC in broth against Proteus mirabilis; assay type: cell-based
Description: as §1

[7] = tested on: Pasteurella multocida (Canine and BRD); test: MIC in broth against Pasteurella multocida; assay type: cell-based
Description: as §1

[8] = tested on: Streptococcus agalactiae; test: MIC in broth against Streptococcus agalactiae; assay type: cell-based; design: unit not given beside the values
Description: as §1

[9] = tested on: Staphylococcus pseudintermedius (including MRSP); test: MIC in broth against Staphylococcus pseudintermedius (including MRSP); assay type: cell-based; design: unit not given beside the values
Description: as §1

[10] = tested on: Serratia marcescens; test: MIC in broth against Serratia marcescens; assay type: cell-based; design: unit not given beside the values
Description: as §1

[11] = tested on: Streptococcus canis; test: MIC in broth against Streptococcus canis; assay type: cell-based; design: unit not given beside the values
Description: as §1

[12] = tested on: Coagulase negative Staphylococcus species; test: MIC in broth against coagulase negative Staphylococcus species; assay type: cell-based
Description: as §1

[13] = tested on: S. pneumoniae (Str-53) ATCC 49619; conditions: cited from earlier work

CC[C@H]1OC(=O)[C@H](C)[C@@H](O[C@H]2C[C@@](C)(OC)[C@@H](O)[C@H](C)O2)[C@H](C)[C@@H](O[C@@H]2O[C@H](C)C[C@H](N(C)C)[C@H]2O)[C@](C)(O)C[C@@H](C)C(=O)[C@H](C)[C@@H](O)[C@]1(C)O [Ery, Erythromycin]
MIC [1]: 0.06 µg/mL (≈ 0.0818 µM) | MIC [2]: 4 µg/mL (≈ 5.45 µM) | MIC ([2]; Mycoplasmopsis bovis, isolate # 248 (mastitis), read-out: MIC against Mycoplasma bovis): > 8 µg/mL | MIC ([2]; Mycoplasmopsis bovis, isolate # 249 (mastitis), read-out: MIC against Mycoplasma bovis): > 8 µg/mL | MIC ([2]; Mycoplasmopsis bovis, isolate # 250 (mastitis), read-out: MIC against Mycoplasma bovis): > 8 µg/mL | MIC ([2]; Mycoplasmopsis bovis, isolate # 251 (mastitis), read-out: MIC against Mycoplasma bovis): > 8 µg/mL | MIC ([2]; Mycoplasmopsis bovis, isolate # 252 (mastitis), read-out: MIC against Mycoplasma bovis): > 8 µg/mL | MIC ([2]; Mycoplasmopsis bovis, isolate # 253 (mastitis), read-out: MIC against Mycoplasma bovis): 4 µg/mL (≈ 5.45 µM) | MIC ([2]; Mycoplasmopsis bovis, isolate # 254 (mastitis), read-out: MIC against Mycoplasma bovis): > 8 µg/mL | MIC ([2]; Mycoplasmopsis bovis, isolate # 255 (mastitis), read-out: MIC against Mycoplasma bovis): > 8 µg/mL | MIC ([2]; Mycoplasmopsis bovis, isolate # 256 (mastitis), read-out: MIC against Mycoplasma bovis): > 8 µg/mL | MIC ([2]; Mycoplasmopsis bovis, isolate # 257 (mastitis), read-out: MIC against Mycoplasma bovis): > 8 µg/mL | MIC ([3]; A. pleuro. (AC-1) ATTC 27090, read-out: MIC): 8 µg/mL (≈ 10.9 µM) | MIC ([3]; isolate # 237 (porcine lung, SRD), read-out: MIC against Actinobacillus pleuropneumoniae): 2 µg/mL (≈ 2.73 µM) | MIC ([3]; isolates # 228-231, 235 (porcine lung, SRD), read-out: MIC against Actinobacillus pleuropneumoniae): 4 µg/mL (≈ 5.45 µM) | MIC ([3]; isolates # 232-236 (porcine lung, SRD), read-out: MIC against Actinobacillus pleuropneumoniae): 8 µg/mL (≈ 10.9 µM) | MIC ([4]; H. somni (H-15) ATTC 700025, read-out: MIC): 1 µg/mL (≈ 1.36 µM) | MIC ([4]; isolates # 238-240, 243, 246 (BRD), read-out: MIC against Histophilus somni): > 8 µg/mL | MIC ([4]; isolates # 241, 247 (BRD), read-out: MIC against Histophilus somni): 0.5 µg/mL (≈ 0.681 µM) | MIC ([4]; isolates # 242, 244, 245 (BRD), read-out: MIC against Histophilus somni): 1 µg/mL (≈ 1.36 µM) | MIC ([5]; Enterobacter, isolate # 26 (mastitis)): > 8 µg/mL | MIC against Enterobacter species ([5]; isolate # 21 (mastitis)): >8 µg/mL | MIC against Enterobacter species ([5]; isolate # 22 (mastitis)): >8 µg/mL | MIC against Enterobacter species ([5]; isolate # 23 (mastitis)): >8 µg/mL | MIC against Enterobacter species ([5]; isolate # 24 (mastitis)): >8 µg/mL | MIC against Enterobacter species ([5]; isolate # 25 (mastitis)): >8 µg/mL | MIC against Enterobacter species ([5]; isolate # 27 (mastitis)): >8 µg/mL | MIC ([6]; Proteus mirabilis, isolate # 52): > 8 µg/mL | MIC against Proteus mirabilis ([6]; isolate # 48): >8 µg/mL | MIC against Proteus mirabilis ([6]; isolate # 49): >8 µg/mL | MIC against Proteus mirabilis ([6]; isolate # 50): >8 µg/mL | MIC against Proteus mirabilis ([6]; isolate # 51): >8 µg/mL | MIC against Proteus mirabilis ([6]; isolate # 53): >8 µg/mL | MIC against Proteus mirabilis ([6]; isolate # 54): >8 µg/mL | MIC against Proteus mirabilis ([6]; isolate # 55): >8 µg/mL | MIC against Proteus mirabilis ([6]; isolate # 56): >8 µg/mL | MIC against Proteus mirabilis ([6]; isolate # 57): >8 µg/mL | MIC against Pasteurella multocida ([7]; strain # 168): 0.5 | MIC against Pasteurella multocida ([7]; strain # 169): 1 | MIC against Pasteurella multocida ([7]; strain # 170): 1 | MIC against Pasteurella multocida ([7]; strain # 171): 0.5 | MIC against Pasteurella multocida ([7]; strain # 172): 1 | MIC against Pasteurella multocida ([7]; strain # 173): 2 | MIC against Pasteurella multocida ([7]; strain # 174): 8 | MIC against Pasteurella multocida ([7]; strain # 175): 1 | MIC against Pasteurella multocida ([7]; strain # 176): 0.5 | MIC against Pasteurella multocida ([7]; strain # 177): 2 | MIC against Pasteurella multocida ([7]; strain # 178): 4 | MIC against Pasteurella multocida ([7]; strain # 179): 2 | MIC against Pasteurella multocida ([7]; strain # 180): 2 | MIC against Pasteurella multocida ([7]; strain # 181): 2 | MIC against Pasteurella multocida ([7]; strain # 182): 2 | MIC against Pasteurella multocida ([7]; strain # 183): >8 | MIC against Pasteurella multocida ([7]; strain # 184): 2 | MIC against Pasteurella multocida ([7]; strain # 185): >8 | MIC against Pasteurella multocida ([7]; strain # 186): 2 | MIC against Pasteurella multocida ([7]; strain # 187): >8 | MIC against Streptococcus agalactiae ([8]; isolate # 188): 0.03 | MIC against Streptococcus agalactiae ([8]; isolate # 189): 0.06 | MIC against Streptococcus agalactiae ([8]; isolate # 190): 0.03 | MIC against Streptococcus agalactiae ([8]; isolate # 191): 0.03 | MIC against Streptococcus agalactiae ([8]; isolate # 192): 0.06 | MIC against Streptococcus agalactiae ([8]; isolate # 193): 0.06 | MIC against Streptococcus agalactiae ([8]; isolate # 194): 0.03 | MIC against Streptococcus agalactiae ([8]; isolate # 195): 0.03 | MIC against Streptococcus agalactiae ([8]; isolate # 196): 0.03 | MIC against Streptococcus agalactiae ([8]; isolate # 197): 0.03 | MIC against Staphylococcus pseudintermedius (+ MSRP) ([9]; isolate # 128): 0.25 | MIC against Staphylococcus pseudintermedius (+ MSRP) ([9]; isolate # 129): 0.25 | MIC against Staphylococcus pseudintermedius (+ MSRP) ([9]; isolate # 130): 0.25 | MIC against Staphylococcus pseudintermedius (+ MSRP) ([9]; isolate # 131): 0.25 | MIC against Staphylococcus pseudintermedius (+ MSRP) ([9]; isolate # 132): 0.25 | MIC against Staphylococcus pseudintermedius (+ MSRP) ([9]; isolate # 133): 0.25 | MIC against Staphylococcus pseudintermedius (+ MSRP) ([9]; isolate # 134): 0.25 | MIC against Staphylococcus pseudintermedius (+ MSRP) ([9]; isolate # 135): 0.12 | MIC against Staphylococcus pseudintermedius (+ MSRP) ([9]; isolate # 136): 0.25 | MIC against Staphylococcus pseudintermedius (+ MSRP) ([9]; isolate # 137): 0.12 | MIC against Staphylococcus pseudintermedius (+ MSRP) ([9]; isolate # 138): >8 | MIC against Staphylococcus pseudintermedius (+ MSRP) ([9]; isolate # 139): 0.25 | MIC against Staphylococcus pseudintermedius (+ MSRP) ([9]; isolate # 140): >8 | MIC against Staphylococcus pseudintermedius (+ MSRP) ([9]; isolate # 141): >8 | MIC against Staphylococcus pseudintermedius (+ MSRP) ([9]; isolate # 142): >8 | MIC against Staphylococcus pseudintermedius (+ MSRP) ([9]; isolate # 143): >8 | MIC against Staphylococcus pseudintermedius (+ MSRP) ([9]; isolate # 144): >8 | MIC against Staphylococcus pseudintermedius (+ MSRP) ([9]; isolate # 145): >8 | MIC against Staphylococcus pseudintermedius (+ MSRP) ([9]; isolate # 146): >8 | MIC against Staphylococcus pseudintermedius (+ MSRP) ([9]; isolate # 147): >8 | MIC against Serratia marcescens ([10]; isolate # 68): >8 | MIC against Serratia marcescens ([10]; isolate # 69): >8 | MIC against Serratia marcescens ([10]; isolate # 70): >8 | MIC against Serratia marcescens ([10]; isolate # 71): >8 | MIC against Serratia marcescens ([10]; isolate # 72): >8 | MIC against Serratia marcescens ([10]; isolate # 73): >8 | MIC against Serratia marcescens ([10]; isolate # 74): >8 | MIC against Serratia marcescens ([10]; isolate # 75): >8 | MIC against Serratia marcescens ([10]; isolate # 76): >8 | MIC against Serratia marcescens ([10]; isolate # 77): >8 | MIC against Streptococcus canis ([11]; isolate # 198): 0.06 | MIC against Streptococcus canis ([11]; isolate # 199): 0.06 | MIC against Streptococcus canis ([11]; isolate # 200): 0.12 | MIC against Streptococcus canis ([11]; isolate # 201): 0.06 | MIC against Streptococcus canis ([11]; isolate # 202): 0.06 | MIC against Streptococcus canis ([11]; isolate # 203): 0.06 | MIC against Streptococcus canis ([11]; isolate # 204): 0.06 | MIC against Streptococcus canis ([11]; isolate # 205): 0.06 | MIC against Streptococcus canis ([11]; isolate # 206): 0.06 | MIC against Streptococcus canis ([11]; isolate # 207): 0.06 | MIC ([12]; isolate # 148): 0.12 µg/mL (≈ 0.164 µM) | MIC ([12]; isolate # 149): 0.12 µg/mL (≈ 0.164 µM) | MIC ([12]; isolate # 150): 0.25 µg/mL (≈ 0.341 µM) | MIC ([12]; isolate # 151): 0.25 µg/mL (≈ 0.341 µM) | MIC ([12]; isolate # 152): 0.25 µg/mL (≈ 0.341 µM) | MIC ([12]; isolate # 153): 0.5 µg/mL (≈ 0.681 µM) | MIC ([12]; isolate # 154): 0.5 µg/mL (≈ 0.681 µM) | MIC ([12]; isolate # 155): 0.25 µg/mL (≈ 0.341 µM) | MIC ([12]; isolate # 156): 0.25 µg/mL (≈ 0.341 µM) | MIC ([12]; isolate # 157): 0.12 µg/mL (≈ 0.164 µM) | Known range (MIC) [13]: .03 to .12 µg/mL
